Publication PMC5605198, “MELK is not necessary for the proliferation of basal-like breast cancer cells” (eLife, 2017)

Key:
[1] = target: PIK3CA (Homo sapiens, UniProt P42336); assay: Adapta kinase assay; conditions: Adapta assay at [ATP]=apparent Km; read-out: Biochemical IC50 PIK3CA
[2] = target: JNK2 (Homo sapiens, UniProt P45984); assay: ICKP radiometric kinase assay; assay type: biochemical; conditions: read-out: % AR (% kinase activity remaining)
[3] = target: p38 delta (Homo sapiens, UniProt O15264); assay: ICKP radiometric kinase assay; assay type: biochemical; conditions: read-out: % AR (% kinase activity remaining)
[4] = target: RSK1 (Homo sapiens, UniProt Q15418); assay: ICKP radiometric kinase assay; assay type: biochemical; conditions: read-out: % AR (% kinase activity remaining)
[5] = target: RSK2 (Homo sapiens, UniProt P51812); assay: ICKP radiometric kinase assay; assay type: biochemical; conditions: read-out: % AR (% kinase activity remaining)
[6] = target: PKB alpha (Homo sapiens, UniProt P31749); assay: ICKP radiometric kinase assay; assay type: biochemical; conditions: read-out: % AR (% kinase activity remaining)
[7] = target: PKB beta (Homo sapiens, UniProt P31751); assay: ICKP radiometric kinase assay; assay type: biochemical; conditions: read-out: % AR (% kinase activity remaining)
[8] = target: PKC alpha (Homo sapiens, UniProt P17252); assay: ICKP radiometric kinase assay; assay type: biochemical; conditions: read-out: % AR (% kinase activity remaining)
[9] = target: STK33 (Homo sapiens, UniProt Q9BYT3); assay: ICKP radiometric kinase assay; assay type: biochemical; conditions: read-out: % AR (% kinase activity remaining)
[10] = target: MNK1 (Homo sapiens, UniProt Q9BUB5); assay: ICKP radiometric kinase assay; assay type: biochemical; conditions: read-out: % AR (% kinase activity remaining)
[11] = target: MNK2 (Homo sapiens, UniProt Q9HBH9); assay: ICKP radiometric kinase assay; assay type: biochemical; conditions: read-out: % AR (% kinase activity remaining)
[12] = target: DAPK1 (Homo sapiens, UniProt P53355); assay: ICKP radiometric kinase assay; assay type: biochemical; conditions: read-out: % AR (% kinase activity remaining)
[13] = target: GSK3 beta (Homo sapiens, UniProt P49841); assay: ICKP radiometric kinase assay; assay type: biochemical; conditions: read-out: % AR (% kinase activity remaining)
[14] = target: CDK2-Cyclin A (Homo sapiens, UniProt P24941); assay: ICKP radiometric kinase assay; assay type: biochemical; conditions: read-out: % AR (% kinase activity remaining)
[15] = target: MARK4 (Homo sapiens, UniProt Q96L34); assay: ICKP radiometric kinase assay; assay type: biochemical; conditions: read-out: % AR (% kinase activity remaining)
[16] = target: BRSK2 (Homo sapiens, UniProt Q8IWQ3); assay: ICKP radiometric kinase assay; assay type: biochemical; conditions: read-out: % AR (% kinase activity remaining)
[17] = target: SIK3 (Homo sapiens, UniProt Q9Y2K2); assay: ICKP radiometric kinase assay; assay type: biochemical; conditions: read-out: % AR (% kinase activity remaining)
[18] = target: TTBK1 (Homo sapiens, UniProt Q5TCY1); assay: ICKP radiometric kinase assay; assay type: biochemical; conditions: read-out: % AR (% kinase activity remaining)
[19] = target: TTBK2 (Homo sapiens, UniProt Q6IQ55); assay: ICKP radiometric kinase assay; assay type: biochemical; conditions: read-out: % AR (% kinase activity remaining)
[20] = target: DYRK1A (Homo sapiens, UniProt Q13627); assay: ICKP radiometric kinase assay; assay type: biochemical; conditions: read-out: % AR (% kinase activity remaining)
[21] = target: PIM2 (Homo sapiens, UniProt Q9P1W9); assay: ICKP radiometric kinase assay; assay type: biochemical; conditions: read-out: % AR (% kinase activity remaining)
[22] = target: EF2K (Homo sapiens, UniProt O00418); assay: ICKP radiometric kinase assay; assay type: biochemical; conditions: read-out: % AR (% kinase activity remaining)
[23] = target: HIPK2 (Homo sapiens, UniProt Q9H2X6); assay: ICKP radiometric kinase assay; assay type: biochemical; conditions: read-out: % AR (% kinase activity remaining)
[24] = target: PAK2 (Homo sapiens, UniProt Q13177); assay: ICKP radiometric kinase assay; assay type: biochemical; conditions: read-out: % AR (% kinase activity remaining)
[25] = target: PAK4 (Homo sapiens, UniProt O96013); assay: ICKP radiometric kinase assay; assay type: biochemical; conditions: read-out: % AR (% kinase activity remaining)
[26] = target: MST2 (Homo sapiens, UniProt Q13188); assay: ICKP radiometric kinase assay; assay type: biochemical; conditions: read-out: % AR (% kinase activity remaining)
[27] = target: MAP4K5 (Homo sapiens, UniProt Q9Y4K4); assay: ICKP radiometric kinase assay; assay type: biochemical; conditions: read-out: % AR (% kinase activity remaining)
[28] = target: MEKK1 (Homo sapiens, UniProt Q13233); assay: ICKP radiometric kinase assay; assay type: biochemical; conditions: read-out: % AR (% kinase activity remaining)
[29] = target: MLK1 (Homo sapiens, UniProt P80192); assay: ICKP radiometric kinase assay; assay type: biochemical; conditions: read-out: % AR (% kinase activity remaining)
[30] = target: TESK1 (Homo sapiens, UniProt Q15569); assay: ICKP radiometric kinase assay; assay type: biochemical; conditions: read-out: % AR (% kinase activity remaining)
[31] = target: ASK1 (Homo sapiens, UniProt Q99683); assay: ICKP radiometric kinase assay; assay type: biochemical; conditions: read-out: % AR (% kinase activity remaining)
[32] = target: RIPK2 (Homo sapiens, UniProt O43353); assay: ICKP radiometric kinase assay; assay type: biochemical; conditions: for remaining activity at 1 µM: read-out: % AR (% kinase activity remaining)
[33] = target: OSR1 (Homo sapiens, UniProt O95747); assay: ICKP radiometric kinase assay; assay type: biochemical; conditions: read-out: % AR (% kinase activity remaining)
[34] = target: TTK (Homo sapiens, UniProt P33981); assay: ICKP radiometric kinase assay; assay type: biochemical; conditions: read-out: % AR (% kinase activity remaining)
[35] = target: ULK2 (Homo sapiens, UniProt Q8IYT8); assay: ICKP radiometric kinase assay; assay type: biochemical; conditions: read-out: % AR (% kinase activity remaining)
[36] = target: ABL (Homo sapiens, UniProt P00519); assay: ICKP radiometric kinase assay; assay type: biochemical; conditions: read-out: % AR (% kinase activity remaining)
[37] = target: BRK (Homo sapiens, UniProt Q13882); assay: ICKP radiometric kinase assay; assay type: biochemical; conditions: read-out: % AR (% kinase activity remaining)
[38] = target: EPH-B1 (Homo sapiens, UniProt P54762); assay: ICKP radiometric kinase assay; assay type: biochemical; conditions: read-out: % AR (% kinase activity remaining)
[39] = target: EPH-B3 (Homo sapiens, UniProt P54753); assay: ICKP radiometric kinase assay; assay type: biochemical; conditions: read-out: % AR (% kinase activity remaining)
[40] = target: IGF-1R (Homo sapiens, UniProt P08069); assay: ICKP radiometric kinase assay; assay type: biochemical; conditions: read-out: % AR (% kinase activity remaining)
[41] = target: IR (Homo sapiens, UniProt P06213); assay: ICKP radiometric kinase assay; assay type: biochemical; conditions: read-out: % AR (% kinase activity remaining)
[42] = target: TrkA (Homo sapiens, UniProt P04629); assay: ICKP radiometric kinase assay; assay type: biochemical; conditions: read-out: % AR (% kinase activity remaining)
[43] = target: DDR2 (Homo sapiens, UniProt Q16832); assay: ICKP radiometric kinase assay; assay type: biochemical; conditions: read-out: % AR (% kinase activity remaining)
[44] = target: PINK (Tribolium castaneum, UniProt D6WMX4); assay: ICKP radiometric kinase assay; conditions: read-out: % AR (% kinase activity remaining)

Chain of RIPK2 (O43353 whole entry, species assumed): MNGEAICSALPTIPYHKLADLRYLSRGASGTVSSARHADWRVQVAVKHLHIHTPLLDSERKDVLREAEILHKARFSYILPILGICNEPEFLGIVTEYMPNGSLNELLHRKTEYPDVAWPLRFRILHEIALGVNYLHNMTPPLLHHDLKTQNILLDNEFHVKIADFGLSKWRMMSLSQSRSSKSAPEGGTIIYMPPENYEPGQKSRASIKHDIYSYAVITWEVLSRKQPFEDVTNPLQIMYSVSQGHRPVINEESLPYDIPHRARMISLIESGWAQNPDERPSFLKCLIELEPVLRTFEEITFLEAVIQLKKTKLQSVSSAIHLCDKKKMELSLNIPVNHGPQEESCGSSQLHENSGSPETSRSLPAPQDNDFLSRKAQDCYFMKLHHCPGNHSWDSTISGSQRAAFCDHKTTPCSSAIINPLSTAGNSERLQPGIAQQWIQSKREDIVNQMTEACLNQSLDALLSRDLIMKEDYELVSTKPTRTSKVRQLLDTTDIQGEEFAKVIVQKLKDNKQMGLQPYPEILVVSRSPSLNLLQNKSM
Chain of TTK (P33981 whole entry): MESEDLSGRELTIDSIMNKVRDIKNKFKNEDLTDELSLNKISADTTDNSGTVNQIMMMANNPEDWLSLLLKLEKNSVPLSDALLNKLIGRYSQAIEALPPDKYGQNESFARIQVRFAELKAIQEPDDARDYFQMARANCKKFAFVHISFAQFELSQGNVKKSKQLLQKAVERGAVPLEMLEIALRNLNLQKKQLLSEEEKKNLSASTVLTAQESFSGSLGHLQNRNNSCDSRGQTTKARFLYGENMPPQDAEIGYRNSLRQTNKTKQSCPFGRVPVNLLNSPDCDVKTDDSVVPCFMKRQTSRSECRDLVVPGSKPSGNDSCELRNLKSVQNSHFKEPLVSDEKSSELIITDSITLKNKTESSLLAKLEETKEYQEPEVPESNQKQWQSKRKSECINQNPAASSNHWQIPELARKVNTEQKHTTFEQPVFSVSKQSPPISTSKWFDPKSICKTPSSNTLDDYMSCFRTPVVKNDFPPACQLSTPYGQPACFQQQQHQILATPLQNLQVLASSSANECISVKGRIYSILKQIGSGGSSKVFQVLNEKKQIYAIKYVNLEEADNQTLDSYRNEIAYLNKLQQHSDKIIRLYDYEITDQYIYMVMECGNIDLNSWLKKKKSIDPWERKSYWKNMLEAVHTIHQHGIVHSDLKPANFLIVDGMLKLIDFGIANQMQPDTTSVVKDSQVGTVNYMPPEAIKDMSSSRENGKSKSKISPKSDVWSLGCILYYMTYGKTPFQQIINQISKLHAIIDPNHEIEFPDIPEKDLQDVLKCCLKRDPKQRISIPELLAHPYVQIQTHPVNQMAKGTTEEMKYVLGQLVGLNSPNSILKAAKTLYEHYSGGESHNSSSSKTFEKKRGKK
Chain of PKB alpha (P31749 whole entry): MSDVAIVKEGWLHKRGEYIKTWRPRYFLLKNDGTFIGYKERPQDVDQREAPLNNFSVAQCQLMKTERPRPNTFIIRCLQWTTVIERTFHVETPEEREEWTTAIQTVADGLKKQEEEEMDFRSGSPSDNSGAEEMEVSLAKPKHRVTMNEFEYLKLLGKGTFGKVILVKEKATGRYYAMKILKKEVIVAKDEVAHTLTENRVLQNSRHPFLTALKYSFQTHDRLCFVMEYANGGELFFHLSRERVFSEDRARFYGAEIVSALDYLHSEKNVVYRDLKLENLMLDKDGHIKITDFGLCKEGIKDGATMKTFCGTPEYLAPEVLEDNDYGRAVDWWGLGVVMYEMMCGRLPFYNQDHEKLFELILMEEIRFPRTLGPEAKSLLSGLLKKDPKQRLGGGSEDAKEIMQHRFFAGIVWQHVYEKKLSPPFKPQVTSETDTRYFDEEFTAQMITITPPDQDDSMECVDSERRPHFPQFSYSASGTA
Chain of MST2 (Q13188 whole entry): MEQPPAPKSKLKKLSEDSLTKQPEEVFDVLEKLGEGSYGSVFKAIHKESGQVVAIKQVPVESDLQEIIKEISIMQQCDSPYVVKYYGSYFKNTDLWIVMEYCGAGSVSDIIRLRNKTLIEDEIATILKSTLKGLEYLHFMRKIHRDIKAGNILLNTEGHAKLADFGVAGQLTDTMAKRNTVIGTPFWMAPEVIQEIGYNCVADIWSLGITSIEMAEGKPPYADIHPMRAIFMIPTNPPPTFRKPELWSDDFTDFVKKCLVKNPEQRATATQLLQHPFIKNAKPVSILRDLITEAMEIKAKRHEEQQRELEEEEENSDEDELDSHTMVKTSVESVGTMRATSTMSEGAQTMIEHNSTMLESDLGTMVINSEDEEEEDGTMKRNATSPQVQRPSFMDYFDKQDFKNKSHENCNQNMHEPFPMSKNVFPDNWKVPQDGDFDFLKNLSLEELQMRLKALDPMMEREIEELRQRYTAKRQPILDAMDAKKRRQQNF
Chain of PAK4 (O96013 whole entry): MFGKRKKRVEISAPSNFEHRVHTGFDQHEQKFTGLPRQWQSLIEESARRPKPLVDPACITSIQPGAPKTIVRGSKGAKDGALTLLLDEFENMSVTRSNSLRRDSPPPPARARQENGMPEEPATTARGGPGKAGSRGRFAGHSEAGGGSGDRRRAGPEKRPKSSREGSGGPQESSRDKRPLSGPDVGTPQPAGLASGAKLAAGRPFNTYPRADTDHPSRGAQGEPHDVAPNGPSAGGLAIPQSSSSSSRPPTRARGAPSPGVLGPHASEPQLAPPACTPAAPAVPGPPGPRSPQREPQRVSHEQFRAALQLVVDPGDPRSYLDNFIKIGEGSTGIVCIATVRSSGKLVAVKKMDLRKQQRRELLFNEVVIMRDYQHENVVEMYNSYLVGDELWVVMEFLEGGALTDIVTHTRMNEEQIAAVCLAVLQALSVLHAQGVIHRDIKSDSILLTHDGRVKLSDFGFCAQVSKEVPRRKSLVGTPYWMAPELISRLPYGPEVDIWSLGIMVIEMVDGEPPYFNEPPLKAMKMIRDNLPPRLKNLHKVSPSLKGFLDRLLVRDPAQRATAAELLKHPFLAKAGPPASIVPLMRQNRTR
Chain of TESK1 (Q15569 whole entry): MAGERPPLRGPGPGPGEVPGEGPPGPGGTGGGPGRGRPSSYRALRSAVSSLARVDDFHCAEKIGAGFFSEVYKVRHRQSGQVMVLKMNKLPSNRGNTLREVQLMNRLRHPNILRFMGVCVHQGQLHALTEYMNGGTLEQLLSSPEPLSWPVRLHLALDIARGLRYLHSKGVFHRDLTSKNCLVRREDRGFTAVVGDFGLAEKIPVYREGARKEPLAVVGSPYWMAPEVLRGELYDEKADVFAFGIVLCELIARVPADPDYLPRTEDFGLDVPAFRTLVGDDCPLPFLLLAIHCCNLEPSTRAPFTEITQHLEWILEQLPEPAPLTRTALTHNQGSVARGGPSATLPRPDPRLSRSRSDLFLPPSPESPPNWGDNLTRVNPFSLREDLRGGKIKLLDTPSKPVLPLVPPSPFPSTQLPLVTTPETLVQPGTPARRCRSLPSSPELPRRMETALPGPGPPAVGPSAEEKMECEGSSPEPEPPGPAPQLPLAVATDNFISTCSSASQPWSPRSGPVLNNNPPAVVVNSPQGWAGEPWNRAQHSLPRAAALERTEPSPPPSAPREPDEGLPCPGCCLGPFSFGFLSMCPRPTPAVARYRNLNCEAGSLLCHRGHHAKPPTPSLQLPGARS
Chain of PKB beta (P31751 whole entry): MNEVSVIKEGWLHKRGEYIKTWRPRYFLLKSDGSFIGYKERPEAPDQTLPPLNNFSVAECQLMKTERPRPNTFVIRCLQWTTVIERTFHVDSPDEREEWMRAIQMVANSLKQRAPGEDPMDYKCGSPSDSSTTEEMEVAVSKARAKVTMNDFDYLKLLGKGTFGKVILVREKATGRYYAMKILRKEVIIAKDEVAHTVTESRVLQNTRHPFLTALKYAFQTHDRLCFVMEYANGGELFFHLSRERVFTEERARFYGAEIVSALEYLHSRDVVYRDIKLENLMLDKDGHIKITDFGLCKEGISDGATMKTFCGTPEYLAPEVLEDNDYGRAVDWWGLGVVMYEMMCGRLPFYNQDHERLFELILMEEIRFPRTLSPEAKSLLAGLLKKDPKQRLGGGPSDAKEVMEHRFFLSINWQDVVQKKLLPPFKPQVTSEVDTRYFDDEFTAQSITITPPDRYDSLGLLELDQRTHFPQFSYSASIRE
Chain of PIM2 (Q9P1W9 whole entry): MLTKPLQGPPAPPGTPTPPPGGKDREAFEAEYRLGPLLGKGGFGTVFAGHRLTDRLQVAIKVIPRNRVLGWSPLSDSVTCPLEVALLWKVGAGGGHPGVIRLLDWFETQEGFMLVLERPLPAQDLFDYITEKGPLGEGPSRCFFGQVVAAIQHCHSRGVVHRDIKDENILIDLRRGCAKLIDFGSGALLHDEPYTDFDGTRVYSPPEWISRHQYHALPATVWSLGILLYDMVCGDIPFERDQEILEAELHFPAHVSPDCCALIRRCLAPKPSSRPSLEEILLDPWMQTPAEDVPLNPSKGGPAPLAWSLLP
Chain of OSR1 (O95747 whole entry): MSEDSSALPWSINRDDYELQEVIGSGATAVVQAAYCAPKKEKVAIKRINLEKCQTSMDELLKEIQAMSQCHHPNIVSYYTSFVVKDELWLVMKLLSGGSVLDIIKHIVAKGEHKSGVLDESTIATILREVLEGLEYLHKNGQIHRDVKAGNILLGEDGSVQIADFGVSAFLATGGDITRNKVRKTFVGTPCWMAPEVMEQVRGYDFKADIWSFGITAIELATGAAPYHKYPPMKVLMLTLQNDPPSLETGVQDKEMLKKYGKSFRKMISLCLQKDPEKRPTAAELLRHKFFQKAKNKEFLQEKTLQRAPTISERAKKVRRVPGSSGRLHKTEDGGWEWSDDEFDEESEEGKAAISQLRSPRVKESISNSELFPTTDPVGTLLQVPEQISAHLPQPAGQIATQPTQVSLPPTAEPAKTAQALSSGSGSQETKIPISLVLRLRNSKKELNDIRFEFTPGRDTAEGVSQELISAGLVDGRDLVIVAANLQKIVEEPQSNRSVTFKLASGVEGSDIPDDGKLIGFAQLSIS

SMILES: CN(C)C[C@H]1CC[C@H](N2C(=O)NCc3cnc4ccc(-c5cc(Cl)c(O)c(Cl)c5)cc4c32)CC1 [HTH-01-091, 9-(3,5-dichloro-4-hydroxyphenyl)-1-(trans-4-((dimethylamino)methyl)cyclohexyl)-3,4-dihydropyrimido[5,4 c]quinolin-2(1H)-one]
- IC50 [1]: 0.962 µM
- remaining activity at 1 µM [2]: 100%
- remaining activity at 1 µM [3]: 89%
- remaining activity at 1 µM [4]: 48%
- remaining activity at 1 µM [5]: 62%
- remaining activity at 1 µM [6]: 101%
- remaining activity at 1 µM [7]: 88%
- remaining activity at 1 µM [8]: 79%
- remaining activity at 1 µM [9]: 26%
- remaining activity at 1 µM [10]: 109%
- remaining activity at 1 µM [11]: 103%
- remaining activity at 1 µM [12]: 15%
- remaining activity at 1 µM [13]: 86%
- remaining activity at 1 µM [14]: 67%
- remaining activity at 1 µM [15]: 95%
- remaining activity at 1 µM [16]: 125%
- remaining activity at 1 µM [17]: 83%
- remaining activity at 1 µM [18]: 103%
- remaining activity at 1 µM [19]: 86%
- remaining activity at 1 µM [20]: 23%
- remaining activity at 1 µM [21]: 2%
- remaining activity at 1 µM [22]: 85%
- remaining activity at 1 µM [23]: 13%
- remaining activity at 1 µM [24]: 88%
- remaining activity at 1 µM [25]: 79%
- remaining activity at 1 µM [26]: 45%
- remaining activity at 1 µM [27]: 32%
- remaining activity at 1 µM [28]: 111%
- remaining activity at 1 µM [29]: 35%
- remaining activity at 1 µM [30]: 95%
- remaining activity at 1 µM [31]: 90%
- remaining activity at 1 µM [32]: 3%
- IC50 ([32]; radioactive filter-binding assay provided by the ICKP, read-out: Enzymatic IC50 RIPK2): 0.0425 µM
- remaining activity at 1 µM [33]: 93%
- remaining activity at 1 µM [34]: 53%
- remaining activity at 1 µM [35]: 105%
- remaining activity at 1 µM [36]: 70%
- remaining activity at 1 µM [37]: 96%
- remaining activity at 1 µM [38]: 122%
- remaining activity at 1 µM [39]: 99%
- remaining activity at 1 µM [40]: 92%
- remaining activity at 1 µM [41]: 100%
- remaining activity at 1 µM [42]: 53%
- remaining activity at 1 µM [43]: 44%
- remaining activity at 1 µM [44]: 93%

SMILES: CC(=O)c1cnc2ccc(-c3cc(Cl)c(O)c(Cl)c3)nc2c1N[C@H]1CC[C@H](CN(C)C)CC1 [OTSSP167]
- IC50 [1]: 0.0665 µM
- remaining activity at 1 µM [2]: 16%
- remaining activity at 1 µM [3]: 4%
- remaining activity at 1 µM [4]: 3%
- remaining activity at 1 µM [5]: 1%
- remaining activity at 1 µM [6]: 28%
- remaining activity at 1 µM [7]: 24%
- remaining activity at 1 µM [8]: 7%
- remaining activity at 1 µM [9]: 10%
- remaining activity at 1 µM [10]: 28%
- remaining activity at 1 µM [11]: 13%
- remaining activity at 1 µM [12]: 1%
- remaining activity at 1 µM [13]: 0%
- remaining activity at 1 µM [14]: 2%
- remaining activity at 1 µM [15]: 14%
- remaining activity at 1 µM [16]: 2%
- remaining activity at 1 µM [17]: 4%
- remaining activity at 1 µM [18]: 82%
- remaining activity at 1 µM [19]: 91%
- remaining activity at 1 µM [20]: 1%
- remaining activity at 1 µM [21]: 0%
- remaining activity at 1 µM [22]: 114%
- remaining activity at 1 µM [23]: 2%
- remaining activity at 1 µM [24]: 74%
- remaining activity at 1 µM [25]: 9%
- remaining activity at 1 µM [26]: 7%
- remaining activity at 1 µM [27]: 3%
- remaining activity at 1 µM [28]: 96%
- remaining activity at 1 µM [29]: 1%
- remaining activity at 1 µM [30]: 51%
- remaining activity at 1 µM [31]: 7%
- remaining activity at 1 µM [32]: 4%
- remaining activity at 1 µM [33]: 45%
- remaining activity at 1 µM [34]: 3%
- remaining activity at 1 µM [35]: 4%
- remaining activity at 1 µM [36]: 1%
- remaining activity at 1 µM [37]: 8%
- remaining activity at 1 µM [38]: 11%
- remaining activity at 1 µM [39]: 18%
- remaining activity at 1 µM [40]: 4%
- remaining activity at 1 µM [41]: 2%
- remaining activity at 1 µM [42]: 1%
- remaining activity at 1 µM [43]: 0%
- remaining activity at 1 µM [44]: 89%
